Results taken from patent publication US20240316165A1, “POLYNUCLEOTIDES ENCODING PROPIONYL-COA CARBOXYLASE ALPHA AND BETA SUBUNITS FOR THE TREATMENT OF PROPIONIC ACIDEMIA” (ModernaTX, Inc., priority 2021, published 2024).

Experiment: tissue kinetics of the components of the drug product in rodents
Type: in vivo
Settings: tissue (tissue with the maximum mean value; not named), read-out: maximum mean tissue terminal-phase elimination half-life (t1/2) (converted)
Protocol: An initial dosing interval of q3W is proposed on the basis of the duration of biomarker response observed in pharmacology studies in Peca−/−(A138T) mice. Specifically, at the minimum efficacious dose level of 0.5 mg/kg, decreases in plasma disease biomarkers were sustained for 3 weeks before rebounding toward pretreatment levels in propionic acidemia mice. The potential for drug product accumulation is considered low, with the planned clinical dosing regimen based on the kinetics of the components of the drug product.

Question: With `CCCCCCCCCOC(=O)CCCCCCCN(CCO)CCCCCCCC(=O)OC(CCCCCCCC)CCCCCCCC` [Compound II] as the compound, how does the half-life read?
Answer: 54.4 h
